{
  "source": "paper PMC9926475",
  "about": "(ACS chemical neuroscience, 2022)",
  "data": [
    {"molecular_target": "N-methyl-D-aspartate receptor (NMDAR)", "assay": "not given", "conditions": "read-out: Ki, inhibitory actions on NMDARs; ref [19],[31],[32]; cited from earlier work", "units": {"Ki": "µM"}, "values": [
      {"smiles": "CNC1(c2ccccc2Cl)CCCCC1=O", "note": "(centres unmarked) [ketamine, reference compound]", "Ki": "0.25 to 1.06"}
    ]},
    {"molecular_target": "N-methyl-D-aspartate receptor (NMDAR)", "assay": "not given", "conditions": "read-out: Ki, potency to bind or inhibit NMDARs; ref [4],[19],[31]-[35]; cited from earlier work", "units": {"Ki": "µM"}, "values": [
      {"smiles": "N[C@@]1(c2ccccc2Cl)CCC[C@@H](O)C1=O", "note": "[(2R,6R)-HNK, (2R,6R)-hydroxynorketamine]", "Ki": "> 100"}
    ]},
    {"molecular_target": "N-methyl-D-aspartate receptor (NMDAR)", "assay": "not given", "conditions": "read-out: NMDAR binding affinity; ref [31]; cited from earlier work", "units": {"Ki": "µM"}, "values": [
      {"smiles": "N[C@@]1(c2ccccc2Cl)CCC[C@H](O)C1=O", "note": "[(2R,6S)-HNK]", "Ki": "> 100"}
    ]},
    {"system": "rats", "assay": "not given", "conditions": "10 mg/kg, i.p., ref [26]; cited from earlier work", "values": [
      {"smiles": "N[C@@]1(c2ccccc2Cl)CCC[C@@H](O)C1=O", "note": "[(2R,6R)-HNK, (2R,6R)-hydroxynorketamine]", "Reversal of learned helplessness": "reversed learned helplessness"}
    ]},
    {"system": "mice", "assay": "not given", "conditions": "i.p.; ref [4]; cited from earlier work", "units": {"Lowest dose reducing forced swim test immobility time": "mg/kg"}, "values": [
      {"smiles": "N[C@@]1(c2ccccc2Cl)CCC[C@@H](O)C1=O", "note": "[(2R,6R)-HNK, (2R,6R)-hydroxynorketamine]", "Lowest dose reducing forced swim test immobility time": 5}
    ]},
    {"system": "mice", "assay": "not given", "conditions": "mice, 10 mg/kg, i.p.; ref [17]; cited from earlier work", "values": [
      {"smiles": "N[C@@]1(c2ccccc2Cl)CCC[C@@H](O)C1=O", "note": "[(2R,6R)-HNK, (2R,6R)-hydroxynorketamine]", "Effect on forced swim test immobility time": "reduced forced swim test immobility time"}
    ]},
    {"system": "not listed separately", "assay": "Pharmacokinetic studies in plasma and brain of mice after i.p. injection", "format": "in vivo, mouse", "conditions": "female CD-1 mice, i.p. 5 mg/kg, normalized to free base dose", "units": {"Cmax (mean ± SEM) Brain": "ng/g•mg/kg"}, "values": [
      {"smiles": "N[C@@]1(c2ccccc2Cl)CCC[C@@H](O)C1=O", "note": "[(2R,6R)-HNK, (2R,6R)-hydroxynorketamine]", "Cmax (mean ± SEM) Brain": "530 ± 17.2"},
      {"smiles": "N[C@@]1(c2ccccc2Cl)CCC[C@H](O)C1=O", "note": "[(2R,6S)-HNK]", "Cmax (mean ± SEM) Brain": "166 ± 12.3"}
    ]},
    {"system": "not listed separately", "assay": "Pharmacokinetic studies in plasma and brain of mice after i.p. injection", "format": "in vivo, mouse", "conditions": "female mice, i.p. 5 mg/kg", "units": {"t1/2 Brain (terminal half-life)": "min", "t1/2 Plasma (terminal half-life)": "min"}, "values": [
      {"smiles": "N[C@@]1(c2ccccc2Cl)CCC[C@@H](O)C1=O", "note": "[(2R,6R)-HNK, (2R,6R)-hydroxynorketamine]", "B:P ratio (brain to plasma AUC ratio)": 1.3, "t1/2 Brain (terminal half-life)": 34, "t1/2 Plasma (terminal half-life)": 36},
      {"smiles": "N[C@@]1(c2ccccc2Cl)CCC[C@H](O)C1=O", "note": "[(2R,6S)-HNK]", "B:P ratio (brain to plasma AUC ratio)": 0.7, "t1/2 Brain (terminal half-life)": 23, "t1/2 Plasma (terminal half-life)": 47}
    ]},
    {"system": "not listed separately", "assay": "Pharmacokinetic studies in plasma and brain of mice after i.p. injection", "format": "in vivo, mouse", "conditions": "females, but not males, i.p. 5 mg/kg; LLOQ 5.0 ng/ml", "values": [
      {"smiles": "N[C@@]1(c2ccccc2Cl)CCC[C@H](O)C1=O", "note": "[(2R,6S)-HNK]", "Brain level at 4 h post-treatment": "below LLOQs"}
    ]},
    {"system": "not listed separately", "assay": "Pharmacokinetic studies in plasma and brain of mice after i.p. injection", "format": "in vivo, mouse", "conditions": "from Table 1", "values": [
      {"smiles": "N[C@@]1(c2ccccc2Cl)CCC[C@H](O)C1=O", "note": "[(2R,6S)-HNK]", "Brain Cmax and AUC compared to equivalent dosing with (2R,6R)-HNK": "approximately two-fold lower"}
    ]},
    {"system": "not listed separately", "assay": "Pharmacokinetic studies in plasma and brain of mice after i.p. injection", "format": "in vivo, mouse", "conditions": "male CD-1 mice, i.p. 5 mg/kg, normalized to free base dose", "units": {"Cmax (mean ± SEM) Brain": "ng/g•mg/kg"}, "values": [
      {"smiles": "N[C@@]1(c2ccccc2Cl)CCC[C@@H](O)C1=O", "note": "[(2R,6R)-HNK, (2R,6R)-hydroxynorketamine]", "Cmax (mean ± SEM) Brain": "380 ± 19.3"},
      {"smiles": "N[C@@]1(c2ccccc2Cl)CCC[C@H](O)C1=O", "note": "[(2R,6S)-HNK]", "Cmax (mean ± SEM) Brain": "173 ± 5.4"}
    ]},
    {"system": "not listed separately", "assay": "Pharmacokinetic studies in plasma and brain of mice after i.p. injection", "format": "in vivo, mouse", "conditions": "male mice, i.p. 5 mg/kg", "units": {"t1/2 Brain (terminal half-life)": "min", "t1/2 Plasma (terminal half-life)": "min"}, "values": [
      {"smiles": "N[C@@]1(c2ccccc2Cl)CCC[C@@H](O)C1=O", "note": "[(2R,6R)-HNK, (2R,6R)-hydroxynorketamine]", "B:P ratio (brain to plasma AUC ratio)": 1.3, "t1/2 Brain (terminal half-life)": 34, "t1/2 Plasma (terminal half-life)": 38},
      {"smiles": "N[C@@]1(c2ccccc2Cl)CCC[C@H](O)C1=O", "note": "[(2R,6S)-HNK]", "B:P ratio (brain to plasma AUC ratio)": 0.6, "t1/2 Brain (terminal half-life)": 43, "t1/2 Plasma (terminal half-life)": 55}
    ]},
    {"system": "not listed separately", "assay": "Pharmacokinetic studies in plasma and brain of mice after i.p. injection", "format": "in vivo, mouse", "conditions": "standard t-test; F female, M male, NS not statistically different", "values": [
      {"smiles": "N[C@@]1(c2ccccc2Cl)CCC[C@@H](O)C1=O", "note": "[(2R,6R)-HNK, (2R,6R)-hydroxynorketamine]", "Sex-dependent difference: Brain Total exposure (AUC)": "F > M", "Sex-dependent difference: Plasma Total exposure (AUC)": "F > M"},
      {"smiles": "N[C@@]1(c2ccccc2Cl)CCC[C@H](O)C1=O", "note": "[(2R,6S)-HNK]", "Sex-dependent difference: Brain Total exposure (AUC)": "M > F", "Sex-dependent difference: Plasma Total exposure (AUC)": "M > F"}
    ]},
    {"system": "not given", "assay": "not given", "conditions": "i.p.; ref [4]; cited from earlier work", "units": {"Lowest dose reducing escape failures in the learned helplessness test": "mg/kg"}, "values": [
      {"smiles": "N[C@@]1(c2ccccc2Cl)CCC[C@@H](O)C1=O", "note": "[(2R,6R)-HNK, (2R,6R)-hydroxynorketamine]", "Lowest dose reducing escape failures in the learned helplessness test": 3}
    ]},
    {"system": "not given", "assay": "not given", "conditions": "i.p. administration to mice, plasma collected at 2.5 and 5 min post-injection; ref [19]; cited from earlier work", "units": {"Time of peak plasma levels": "min"}, "values": [
      {"smiles": "N[C@@]1(c2ccccc2Cl)CCC[C@@H](O)C1=O", "note": "[(2R,6R)-HNK, (2R,6R)-hydroxynorketamine]", "Time of peak plasma levels": 2.5}
    ]},
    {"system": "not given", "assay": "not given", "conditions": "i.p. administration to mice; ref [19]; cited from earlier work", "units": {"Time of peak brain levels": "min"}, "values": [
      {"smiles": "N[C@@]1(c2ccccc2Cl)CCC[C@@H](O)C1=O", "note": "[(2R,6R)-HNK, (2R,6R)-hydroxynorketamine]", "Time of peak brain levels": 5}
    ]},
    {"system": "male mice", "assay": "Forced swim test immobility time 24 h after i.p. treatment", "format": "in vivo, mouse", "conditions": "24 h after injection", "units": {"Minimal effective dose to reduce immobility time in the forced swim test": "mg/kg"}, "values": [
      {"smiles": "N[C@@]1(c2ccccc2Cl)CCC[C@@H](O)C1=O", "note": "[(2R,6R)-HNK, (2R,6R)-hydroxynorketamine]", "Minimal effective dose to reduce immobility time in the forced swim test": 10},
      {"smiles": "N[C@@]1(c2ccccc2Cl)CCC[C@H](O)C1=O", "note": "[(2R,6S)-HNK]", "Minimal effective dose to reduce immobility time in the forced swim test": 1}
    ]},
    {"system": "male mice", "assay": "Forced swim test immobility time 24 h after i.p. treatment", "format": "in vivo, mouse", "conditions": "tested range up to 100 mg/kg", "values": [
      {"smiles": "N[C@@]1(c2ccccc2Cl)CCC[C@@H](O)C1=O", "note": "[(2R,6R)-HNK, (2R,6R)-hydroxynorketamine]", "Shape of dose response curve for forced swim test immobility": "did not demonstrate U-shaped dose responses"},
      {"smiles": "N[C@@]1(c2ccccc2Cl)CCC[C@H](O)C1=O", "note": "[(2R,6S)-HNK]", "Shape of dose response curve for forced swim test immobility": "U-shaped dose response curves"}
    ]}
  ]
}
